# In patent US20060069132A1, “Azolecarboxamide herbicides” (priority 2004, published 2006):
# What was measured:
# velvetleaf = experiment: Test B pre-/postemergence herbicide test; format: in vivo, Abutilon theophrasti
# Outline: (§1)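 Seeds were planted and treated preemergence with compounds formulated in a non-phytotoxic solvent mixture containing surfactant, while plants at the 1- to 4-leaf stage (2 to 18 cm) received postemergence sprays. Flooded paddy plants were grown to the 2-leaf stage. After 13 to 15 days in a greenhouse, injury was visually rated 0–100 against untreated controls.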
# large crabgrass = experiment: Test B pre-/postemergence herbicide test; format: in vivo, Digitaria sanguinalis
# Outline: as §1
# pigweed = experiment: Test B pre-/postemergence herbicide test; format: in vivo, Amaranthus retroflexus
# Outline: as §1
# wheat = experiment: Test B postemergence herbicide test; format: in vivo, Triticum aestivum; set-up: key to Wheat plant response rating: 0 = no effect, 100 = complete control
# Outline: (§2)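 Visual ratings, 0 (no effect) to 100 (complete control), made versus controls after 13–15 d greenhouse. Paddy plants treated at 2-leaf stage; postemergence plants at 1- to 4-leaf stage, 2–18 cm tall.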
# corn = experiment: Test B pre-/postemergence herbicide test; format: in vivo, Zea mays
# Outline: as §1
# giant foxtail = experiment: Test B pre-/postemergence herbicide test; format: in vivo, Setaria faberi
# Outline: as §1
# ducksalad = experiment: Test B flooded paddy test; format: in vivo, Heteranthera limosa; details: scale 0 to 100 (0 no effect, 100 complete control)
# Outline: (§3)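 Visual control ratings, 0–100 versus untreated controls, taken after 13 to 15 days in the greenhouse. Blackgrass received a postemergence spray at the 1- to 4-leaf stage (2–18 cm); ducksalad, umbrella sedge and barnyardgrass were flooded-paddy treated at 2 leaves.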
# cocklebur = experiment: Test B pre-/postemergence herbicide test; format: in vivo, Xanthium strumarium
# Outline: (§4)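 Response was scored visually 13 to 15 days after treatment against untreated greenhouse controls, 0 meaning no effect and 100 complete control. Formulations (solvent mixture plus surfactant) went onto soil after planting, onto foliage of 1- to 4-leaf plants, and onto 2-leaf plants in a flooded paddy set including rice and barnyardgrass.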
# Surinam grass = experiment: Test B pre-/postemergence herbicide test; format: in vivo, Urochloa decumbens
# Outline: as §1
# morningglory = experiment: Test B pre-/postemergence herbicide test; format: in vivo, Ipomoea coccinea
# Outline: as §4
# barnyardgrass [1] = experiment: Test B flooded paddy test; format: in vivo, Echinochloa crus-galli; details: scale 0 to 100 (0 no effect, 100 complete control)
# Outline: as §3
# [2] = test system: small flower umbrella sedge; experiment: Test B flooded paddy test; format: in vivo, Cyperus difformis; details: scale 0 to 100 (0 no effect, 100 complete control)
# Outline: as §3
# blackgrass = experiment: Test B postemergence herbicide test; format: in vivo, Alopecurus myosuroides
# Outline: as §3
# wild oat = experiment: Test B postemergence herbicide test; format: in vivo, Avena fatua
# Outline: as §2
# barnyardgrass [3] = experiment: Test B pre-/postemergence herbicide test; format: in vivo, Echinochloa crus-galli
# Outline: as §4
# lambsquarters = experiment: Test B pre-/postemergence herbicide test; format: in vivo, Chenopodium album
# Outline: as §1
# rice = experiment: Test B flooded paddy test; format: in vivo, Oryza sativa; details: scale 0 to 100 (0 no effect, 100 complete control)
# Outline: as §2
# [4] = 125 g ai/ha, 0 is no effect, 100 is complete control, preemergence
# [5] = 125 g ai/ha, visual rating, scale 0 (no effect) to 100 (complete control), postemergence
# [6] = Postemergence, 500 g ai/ha, scale 0 (no effect) to 100 (complete control)
# [7] = postemergence, 500 g ai/ha, scale 0 to 100, 0 is no effect, 100 is complete control
# [8] = 500 g ai/ha, scale 0 to 100, 0 no effect, 100 complete control, preemergence
# [9] = postemergence, 125 g ai/ha, scale 0 to 100
# [10] = Postemergence, 125 g ai/ha, scale 0 (no effect) to 100 (complete control)
compound,measurement,setting,value
CCc1nn(C(C)(C)CC)nc1C(=O)Nc1cccc(OC(F)(F)F)c1 [Compound 374],"Plant response rating (0 to 100 scale), Velvetleaf",velvetleaf; [4],0
same,Velvetleaf plant response rating,velvetleaf; [5],10
same,Velvetleaf plant response rating,velvetleaf; [6],20
same,"Plant response rating (0 to 100 scale), Crabgrass, Large",large crabgrass; [4],0
same,"Crabgrass, Large plant response rating",large crabgrass; [5],20
same,"Crabgrass, Large plant response rating",large crabgrass; [7],20
same,"Plant response rating (0 to 100 scale), Pigweed",pigweed; [4],30
same,Pigweed plant response rating,pigweed; [5],30
same,Pigweed plant response rating,pigweed; [6],70
same,Wheat plant response rating,wheat; [5],0
same,Wheat plant response rating,wheat; [8],0
same,Wheat plant response rating,wheat; [6],20
same,"Plant response rating (0 to 100 scale), Corn",corn; [4],0
same,Corn plant response rating,corn; [5],10
same,Corn plant response rating,corn; [7],20
same,"Plant response rating (0 to 100 scale), Foxtail, Giant",giant foxtail; [4],10
same,"Foxtail, Giant plant response rating",giant foxtail; [5],20
same,"Foxtail, Giant plant response rating",giant foxtail; [7],20
same,Ducksalad plant response rating,ducksalad; 1000 g ai/ha,50
same,"Plant response rating (0 to 100 scale), Cocklebur",cocklebur; [4],0
same,Cocklebur plant response rating,cocklebur; [5],0
same,Cocklebur plant response rating,cocklebur; [7],30
same,"Plant response rating (0 to 100 scale), Surinam Grass",Surinam grass; [4],10
same,Surinam Grass plant response rating,Surinam grass; [5],10
same,Surinam Grass plant response rating,Surinam grass; [6],20
same,"Plant response rating (0 to 100 scale), Morningglory",morningglory; [4],0
same,Morningglory plant response rating,morningglory; [5],20
same,Morningglory plant response rating,morningglory; [6],20
same,Barnyardgrass plant response rating,barnyardgrass [1]; 1000 g ai/ha,40
same,"Sedge, Umbrella plant response rating",[2]; 1000 g ai/ha,0
same,Blackgrass plant response rating,blackgrass; [5],10
same,Blackgrass plant response rating,blackgrass; [7],30
same,"Oat, Wild plant response rating",wild oat; [5],20
same,"Oat, Wild plant response rating",wild oat; [6],40
same,"Plant response rating (0 to 100 scale), Barnyardgrass",barnyardgrass [3]; [4],0
same,Barnyardgrass plant response rating,barnyardgrass [3]; [5],10
same,Barnyardgrass plant response rating,barnyardgrass [3]; [7],20
same,Lambsquarters plant response rating,lambsquarters; [5],10
same,Lambsquarters plant response rating,lambsquarters; [6],70
same,Rice plant response rating,rice; 1000 g ai/ha,20
C=CCNC(=O)c1cccc(NC(=O)c2nn(C(C)(C)C)nc2C)n1 [Compound 438],Velvetleaf plant response rating,velvetleaf; [6],30
same,Velvetleaf plant response rating,velvetleaf; [9],0
same,"Crabgrass, Large plant response rating",large crabgrass; [6],0
same,"Crabgrass, Large plant response rating",large crabgrass; [9],0
same,Pigweed plant response rating,pigweed; [6],30
same,Pigweed plant response rating,pigweed; [9],10
same,Wheat plant response rating,wheat; [8],0
same,Wheat plant response rating,wheat; [6],30
same,Wheat plant response rating,wheat; [9],20
same,Corn plant response rating,corn; [6],40
same,Corn plant response rating,corn; [9],30
same,"Foxtail, Giant plant response rating",giant foxtail; [6],20
same,"Foxtail, Giant plant response rating",giant foxtail; [9],0
same,Ducksalad plant response rating,ducksalad; 125 g ai/ha,0
same,Cocklebur plant response rating,cocklebur; [6],20
same,Cocklebur plant response rating,cocklebur; [9],20
same,Surinam Grass plant response rating,Surinam grass; [6],0
same,Surinam Grass plant response rating,Surinam grass; [9],0
same,Morningglory plant response rating,morningglory; [6],50
same,Morningglory plant response rating,morningglory; [9],40
same,Barnyardgrass plant response rating,barnyardgrass [1]; 125 g ai/ha,0
same,"Sedge, Umbrella plant response rating",[2]; 125 g ai/ha,0
same,Blackgrass plant response rating,blackgrass; [6],30
same,Blackgrass plant response rating,blackgrass; [9],20
same,"Oat, Wild plant response rating",wild oat; [6],40
same,"Oat, Wild plant response rating",wild oat; [9],30
same,Barnyardgrass plant response rating,barnyardgrass [3]; [10],0
same,Barnyardgrass plant response rating,barnyardgrass [3]; [6],0
same,Lambsquarters plant response rating,lambsquarters; [6],10
same,Lambsquarters plant response rating,lambsquarters; [9],10
same,Rice plant response rating,rice; 125 g ai/ha,0
Cc1nn(C(C)(C)C)nc1C(=O)Nc1cccc(C(=O)N2CC=CC2)n1 [Compound 441],Velvetleaf plant response rating,velvetleaf; [6],0
same,Velvetleaf plant response rating,velvetleaf; [9],0
same,"Crabgrass, Large plant response rating",large crabgrass; [6],0
same,"Crabgrass, Large plant response rating",large crabgrass; [9],0
same,Pigweed plant response rating,pigweed; [6],20
same,Pigweed plant response rating,pigweed; [9],20
same,Wheat plant response rating,wheat; [8],30
same,Wheat plant response rating,wheat; [6],30
same,Wheat plant response rating,wheat; [9],20
same,Corn plant response rating,corn; [6],30
same,Corn plant response rating,corn; [9],0
same,"Foxtail, Giant plant response rating",giant foxtail; [6],0
same,"Foxtail, Giant plant response rating",giant foxtail; [9],0
same,Ducksalad plant response rating,ducksalad; 125 g ai/ha,0
same,Cocklebur plant response rating,cocklebur; [6],10
same,Cocklebur plant response rating,cocklebur; [9],10
same,Surinam Grass plant response rating,Surinam grass; [6],0
same,Surinam Grass plant response rating,Surinam grass; [9],0
same,Morningglory plant response rating,morningglory; [6],0
same,Morningglory plant response rating,morningglory; [9],0
same,Barnyardgrass plant response rating,barnyardgrass [1]; 125 g ai/ha,0
same,"Sedge, Umbrella plant response rating",[2]; 125 g ai/ha,0
same,Blackgrass plant response rating,blackgrass; [6],40
same,Blackgrass plant response rating,blackgrass; [9],20
same,"Oat, Wild plant response rating",wild oat; [6],40
same,"Oat, Wild plant response rating",wild oat; [9],30
same,Barnyardgrass plant response rating,barnyardgrass [3]; [10],0
same,Barnyardgrass plant response rating,barnyardgrass [3]; [6],0
same,Lambsquarters plant response rating,lambsquarters; [6],20
same,Lambsquarters plant response rating,lambsquarters; [9],20
same,Rice plant response rating,rice; 125 g ai/ha,0
CCNC(=O)c1cccc(NC(=O)c2nn(C(C)(C)C)nc2C)n1 [Compound 437],Velvetleaf plant response rating,velvetleaf; [6],20
same,Velvetleaf plant response rating,velvetleaf; [9],0
same,"Crabgrass, Large plant response rating",large crabgrass; [6],20
same,"Crabgrass, Large plant response rating",large crabgrass; [9],0
same,Pigweed plant response rating,pigweed; [6],30
same,Pigweed plant response rating,pigweed; [9],20
same,Wheat plant response rating,wheat; [8],0
same,Wheat plant response rating,wheat; [6],20
same,Corn plant response rating,corn; [6],30
same,Corn plant response rating,corn; [9],0
same,"Foxtail, Giant plant response rating",giant foxtail; [6],30
same,"Foxtail, Giant plant response rating",giant foxtail; [9],0
same,Ducksalad plant response rating,ducksalad; 125 g ai/ha,0
same,Cocklebur plant response rating,cocklebur; [6],30
same,Cocklebur plant response rating,cocklebur; [9],10
same,Surinam Grass plant response rating,Surinam grass; [6],20
same,Surinam Grass plant response rating,Surinam grass; [9],0
same,Morningglory plant response rating,morningglory; [6],30
same,Morningglory plant response rating,morningglory; [9],0
same,Barnyardgrass plant response rating,barnyardgrass [1]; 125 g ai/ha,0
same,"Sedge, Umbrella plant response rating",[2]; 125 g ai/ha,0
same,Blackgrass plant response rating,blackgrass; [6],30
same,Blackgrass plant response rating,blackgrass; [9],0
same,"Oat, Wild plant response rating",wild oat; [6],30
same,Barnyardgrass plant response rating,barnyardgrass [3]; [10],0
same,Barnyardgrass plant response rating,barnyardgrass [3]; [6],30
same,Lambsquarters plant response rating,lambsquarters; [6],40
same,Lambsquarters plant response rating,lambsquarters; [9],20
same,Rice plant response rating,rice; 125 g ai/ha,0
